Measurements published in PubChem BioAssay AID1996.
≈ marks a conversion by molar mass, not a printed value.

details: buffer; pH 7.4; 200.0 µM

Structure (SMILES)	solubility kinetic [µg/mL]
CCN(CC)C(=O)c1csc(Nc2cccc3ccccc23)n1	7.2 (≈ 22.1 µM)
O=C(CN1CCCc2ccccc21)Nc1ccc(F)cc1[N+](=O)[O-]	< 0.2
COc1ccc(NCc2nc3ccccc3n2C)cc1	35 (≈ 131 µM)
CS(=O)(=O)N1CCN(c2ccc([N+](=O)[O-])c3cccnc23)CC1	9.7 (≈ 28.8 µM)
Cc1ccc(Oc2ccc(C(F)(F)F)cc2[N+](=O)[O-])c([N+](=O)[O-])n1	7.2 (≈ 21 µM)
O=C(NCc1ccc(Cl)cc1)c1csc(-c2cccnc2)n1	37.9 (≈ 115 µM)
Br.COC(=O)c1ccc(CN2CCSC2=N)cc1	49.6
OCC1(CC2CCCCO2)CCN(Cc2cccc(O)c2)CC1 (stereo not given)	47.3 (≈ 148 µM)
CCC1(CC)Cc2ccccc2-c2nc(NCCCO)[nH]c(=O)c21	42 (≈ 128 µM)
CC(Cl)C(=O)N1c2ccccc2CCc2ccccc21 (stereo not given)	41.8 (≈ 146 µM)
O=C1NC(c2cc(Cl)cc([N+](=O)[O-])c2O)Nc2ccccc21 (stereo not given)	> 48
CCOc1ccc(S(=O)(=O)Nc2cc(NS(=O)(=O)c3ccc(OCC)cc3)cc(C(=O)O)c2)cc1	> 78.1
O=C1CCCN1CC1CCN(Cc2nc(CC3CC3)no2)CC1	42.9 (≈ 135 µM)
O=C(O)CCC(=O)NCC(=O)c1ccc(F)cc1	> 38
COc1ccc(CN2CCC(Cc3ccccc3)CC2)c(C)c1C	17 (≈ 52.6 µM)
O=C1c2ccsc2SCCN1Cc1cccc(F)c1	42.6 (≈ 145 µM)
Cc1cccc(NC(=O)Nc2ccc(Cl)c(Cl)c2)n1	< 0.2
COc1ccc(C)cc1NC(=O)CN1C(=O)C2CC=CCC2C1=O (stereo not given)	> 49.3
COc1cccc(C(=O)Nc2cccc(-c3ccccc3)c2)c1	2.5 (≈ 8.24 µM)
COc1ccccc1C(=O)Nn1c(C)nc2ccccc2c1=O	> 46.4

Structure (SMILES)	solubility kinetic [µg/mL]
CCN(C(=O)CSc1nc2scc(-c3ccccc3)c2c(=O)n1C)C1CCS(=O)(=O)C1 (stereo not given)	3.1 (≈ 6.49 µM)
CCOC(=O)NC(C)N1C(=O)C2C3C=CC(C3)C2C1=O (stereo not given)	> 41.7
CN1CCN(C(=O)/C=C/c2cccc(Cl)c2)CC1	> 39.7
Cc1sc2ccccc2[n+]1CC(=O)c1ccccc1.[Br-]	42.6
Cc1cc(C)nc(NC(=S)Nc2ccc(F)cc2F)c1	1.7 (≈ 5.8 µM)
COCCNC(=O)/C(C#N)=C/C=C/c1ccccc1	28.9 (≈ 113 µM)
COc1ccc(Cl)cc1NC(=O)CN(C)CC(=O)N(CC(C)C)c1c(N)n(CC(C)C)c(=O)[nH]c1=O	77.9 (≈ 149 µM)
COc1cc(/C=C/C(=O)N2CCc3ccccc3C2)cc(OC)c1OC	46.6 (≈ 132 µM)
CN(c1ccc(C(=O)Nc2cccnc2)cc1)S(=O)(=O)c1ccccc1	> 55.1
COc1ccccc1Nc1nc(-c2sc(N)nc2C)cs1	19.2 (≈ 60.3 µM)
O=C(O)c1cc(S(=O)(=O)NCCOc2ccccc2)ccc1Cl	> 53.4
CN(C)C(=O)COc1ccc(Oc2ccccc2)cc1	25.7 (≈ 94.7 µM)
COc1cc(OC)cc(C(=O)Nc2ccc(Nc3ccccc3)cc2)c1	2.5 (≈ 7.18 µM)
CN1CCN(C(=S)c2cn(Cc3cccc(F)c3)c3ccccc23)CC1	28 (≈ 76.2 µM)
O=C(COC(=O)COc1ccccc1[N+](=O)[O-])NCc1ccc2c(c1)OCO2	> 58.2
O=C1Nc2ccccc2S/C1=C/c1cccs1	< 0.6
COc1cccc2cc(C(=O)NCc3ccc(F)cc3)c(=N)oc12	1.7 (≈ 5.21 µM)
Cc1cc(NC(=O)Nc2c[nH]c(=O)[nH]c2=O)ccc1Br	1.8 (≈ 5.31 µM)
CCN(C(=O)CSc1ncccn1)c1cccc2ccccc12	> 48.5
O=C1NCCSC1c1ccccc1 (stereo not given)	> 29

Structure (SMILES)	solubility kinetic [µg/mL]
Cn1nc(C(=O)OCC(=O)NCCc2ccccc2)c2ccccc2c1=O	> 54.8
CNC(=S)NNC(=O)c1cccc(N(C)C)c1	> 37.9
COc1ccccc1NCCC(=O)OCC(=O)Nc1cc([N+](=O)[O-])ccc1F	51.8 (≈ 132 µM)
NC(=S)C(c1ccccc1)c1ncc(C(F)(F)F)cc1Cl (stereo not given)	41.7 (≈ 126 µM)
COc1ccc(OC)c(/C=C2\SC(N3CCCCC3)=NC2=O)c1	5.4 (≈ 16.2 µM)
C=CCOc1ccccc1NC(=O)CN1C(=O)CNC1=O	> 43.4
CC1(C)CC(NC(=O)Cc2ccccc2)CC(C)(C)N1.Cl	> 46.6
COc1cc(CO)ccc1Oc1nc2ccccc2n2cnnc12	> 48.3
Nc1oc2ccccc2c(=O)c1-c1ccc2c(c1)OCO2	> 42.2
Cc1cc(C)c(S(=O)(=O)NC2CC3CCC2C3)c(C)c1 (stereo not given)	< 0.6
O=C(Nc1cccc(Cl)c1)c1cnc[nH]1	> 33.2
COc1ccc(CCC(=O)Nc2ncc(C)s2)cc1OC	1.8 (≈ 5.87 µM)
COc1ccc(Cl)cc1NC(=O)CN1CCc2ccccc2C1	< 0.4
COC(=O)c1ccc(N2CCN(c3ccccc3)CC2)c(N)c1	0.8 (≈ 2.57 µM)
O=C1c2ccc([N+](=O)[O-])cc2C(=O)N1Cc1cccnc1	> 42.5
CC1=CC(C)(C)NC(=S)N1C(C)c1ccccc1 (stereo not given)	7.2 (≈ 27.6 µM)
OC(COc1ccc(F)cc1Cl)CN1CCc2ccccc2C1 (stereo not given)	37.4 (≈ 111 µM)
O=C(C1COc2ccccc2O1)N1CCN(c2ccc([N+](=O)[O-])cc2)CC1 (stereo not given)	7.7 (≈ 20.8 µM)
N/C(=N\OC(=O)c1ccoc1)c1ccc(Br)cc1	9.2 (≈ 29.8 µM)
Cc1ccccc1Nc1nnc(SCC(=O)NCC2CCCO2)s1 (stereo not given)	> 54.7
